Columns and labels:
[1] = test system: PAF-induced airways hyperreactivity in guinea-pigs; assay: Suppression of airways hyperreactivity in PAF-treated animals (Example B); type: in vivo; conditions: Cavia porcellus, iv; headed Example B (PAF-treated guinea-pigs); i.v.; pure or substantially pure [3S] enantiomer for Example 1; read-out: ID50 (dose required to increase relaxation by 50%)
Description: Guinea pigs (Dunkin-Hartley, male, 400-600g) are anesthetized with phenobarbital (100-mg/kg i.p.) and pentobarbital (30 mg/kg i.p.) and paralyzed with gallamine (10 mg/kg i.m.). Animals are ventilated via a tracheal cannula (10 ml/kg, 1 Hz) with a mixture of air and oxygen (1:1 v/v). Blood pressure and heart rate are recorded at the carotid artery. Ventilation is monitored by a Fleisch flow transducer in line with the inspiratory circuit. When making measurements of flow, coincident pressure changes in the thorax are monitored directly via an intrathoracic trochar, permitting display of differential pressure relative to the trachea. From this information in relation to flow and differential pressure, resistance [R1 ] and compliance [Ddyn ] are calculated using a digital respiratory analyzer for each respiratory cycle.
Guinea-pigs are anesthetized and prepared for recording of lung function as described under Example A.2. above. […] Following infusion of PAF (platelet activating factor) over 1 hr.

[2] = test system: human bronchus ring preparations; assay: Relaxation of human bronchus in vitro (Example A.1.b); type: cell-based; conditions: human bronchus rings; pure or substantially pure [3S] enantiomer for Example 1
Description: (§1) Guinea-pigs (Dunkin-Hartley, 350-500gm) are killed with Pentothal (100mg/kg i.p.). The trachea is dissected and a section 2-3cm in length excised. The trachea is transected in the transverse plane at alternate cartilage plates so as to give rings of tissue 3-5mm in depth. The proximal and distal rings are discarded. Individual rings are mounted vertically on stainless steel supports, one of which is fixed at the base of an organ bathm the other being attached to an isometric transducer. The rings are bathed in Krebs solution composition mM: NaHCo3 25, NaCl 113, KCl 4.7, MgSO4.7H2 O 1.2, KH2 PO4 1.2, CaCl2 2.5, Glucose 11.7) at 37° C. and gassed with O2 /CO2 (95:5,v/v). Rings prepared in this manner, preloaded with 1 g, generate spontaneous tone and, after a period of equilibration (45-60 min.), relax consistently on addition of spasmolytic drugs. To ascertain spasmolytic activity, test substances are dissolved in physiological saline and added in increasign quantities to the organ bath at 5 min. intervals to provide a cumulative concentration-effect curve.
The test is performed analogously to 1. a above but employing rings of human bronchus dissected from lung that has been resected for carcinoma. Dissected material is used immediately or first immersed in total calf serum containing DMSO ([…]), slowly frozen to -70° C. and stored in liquid N2 at -190° C. […]

[3] = test system: guinea-pig tracheal ring preparations; assay: Relaxation of guinea-pig tracheal smooth muscle in vitro (Example A.1.a); type: cell-based, Guinea-pig (Dunkin-Hartley); conditions: Cavia porcellus; guinea-pig tracheal rings, spontaneous tone, 37° C., cumulative; pure or substantially pure [3S] enantiomer for Example 1; read-out: IC50 (concentration required to increase relaxation by 50%)
Description: as §1

Structure (SMILES) | ED50 [1] | IC50 [2] | IC50 [3]
Cn1c(=O)c2[nH]cnc2n(C)c1=O [theophyline] | 3 mg/kg |  | 
COc1cc(OC)cc(C2=N[C@H](CO)Cc3cc(OC)c(OC)cc32)c1 [Example 1, [3S] 3,4-dihydro-6,7-dimethoxy-1-(3,5-dimethoxyphenyl)-3-hydroxymethyl-isoquinoline] | ~0.05 mg/kg | 1.9 µM | 0.18 µM
Cn1c(=O)c2[nH]cnc2n(C)c1=O [aminophylline] |  | 158 µM | 130 µM

From patent US5177085A, “Dihydro-isoquinoline derivatives, processes for their production, pharmaceutical compositions containing them, and their use in treating asthma” (Sandoz Ltd., priority 1990, dated 1993)
